Values joined by “and” are separate entries in the source; they are usually repeats but may differ in a detail not shown here. Equal values may be shown once.
Columns and labels:
[1] = test system: relapsed/refractory T-cell lymphoma (PTCL and CTCL); assay: Efficacy assessment (ORR, DoR), all evaluable patients; type: in vivo, human; conditions: for Median DoR (95% CI) / ORR (95% CI): All
Description: Efficacy assessments included radiological, bone marrow biopsy/aspiration and skin assessments. In some cases, bone marrow disease alone was used for disease assessment. In these cases, response was reported as CR or non-CR.
In PTCL patients, radiological assessment was performed at screening, Day 1 of Cycle 3 and 5 and approximately 12 weeks thereafter. Assessments of skin lesions in PTCL patients were performed, if applicable. Bone marrow biopsy/aspirate was performed in patients without measurable but assessable disease at screening and on Day 1 of Cycle 3 and 5, then also approximately 12 weeks thereafter to confirm a CR.
In CTCL patients, assessment of skin lesions was performed at screening, Day 1 of Cycle 3 and 5, approximately 12 weeks thereafter and at the end of treatment (EOT). Skin photographs were obtained for half body global and up to 5 selected representative index lesions at baseline, at Day 1 of Cycle 3, EOT, at PR/CR/progressive disease (PD) and as required as per the discretion of the Investigator. In case of nodal involvement, radiological assessment was performed at screening, Day 1 of Cycle 3 and 5 and approximately 12 weeks thereafter. Skin biopsy was performed from the most indurated area at screening, on C3D1 and to confirm a CR.
The efficacy parameters included ORR and DoR. Revised Response Criteria for Malignant Lymphoma (Cheson 2007) was used for evaluation of PTCL [21]. International Society for Cutaneous Lymphomas Response Criteria for Mycosis Fungoides and Sezary Syndrome (SS) and Cutaneous Lymphoma Task Force of the European Organization for Research and Treatment of Cancer criteria were used for evaluation of CTCL patients. For skin scoring, the modified Severity Weighted Assessment Tool was used. For local index lesion skin scoring, the Composite Assessment of Index Lesion Severity was used.

[2] = test system: T-cell leukemia xenograft; set-up: method as in ref 18 = [18]; 18. Mao G. Viswanadha S. Rhizen, Switzerland Unpublished work 2013; conditions: cited from earlier work
patients = conditions: cumulative safety data across two studies; cited from earlier work
[3] = Dose Escalation 800 mg Fasting, N = 3
[4] = Dose Escalation 800 mg Fed, N = 5
[5] = Dose Expansion 800 mg Fasting, N = 22

CC[C@H](Nc1ncnc2[nH]cnc12)c1oc2ccccc2c(=O)c1-c1cccc(F)c1 [Tenalisib]
Complete response (CR), number of patients ([1]; 35 evaluable patients): 3 patients
Partial response (PR) ([1]; 35 evaluable patients): 13 n (%) and 13 (37%) n (%)
Progressive disease (PD) ([1]; 35 evaluable patients): 8 (22.9%) n (%)
Complete response (CR) ([1]; 35 evaluable patients, three patients): 9%
Median DoR (95% CI) ([1]; Cumulative Total, N = 35): 4.9 months and 4.9 (4.3, 12.0) months
ORR (95% CI) ([1]; Cumulative Total, N = 35): 45.7% and 45.7 (28.8, 63.4) %
Median DoR (95% CI) ([1]; Dose Escalation 200 mg, N = 3): 4.9 (-,-) months
ORR (95% CI) ([1]; Dose Escalation 200 mg, N = 3): 33.3 (0.8, 90.6) %
Median DoR (95% CI) ([1]; Dose Escalation 400 mg, N = 2): 2.4 (0.97, 3.8) months
ORR (95% CI) ([1]; Dose Escalation 400 mg, N = 2): 100.0 (15.8, 100.0) %
Median DoR (95% CI) [1, 3]: 10.9 (2.3, 19.5) months
ORR (95% CI) [1, 3]: 66.7 (9.4, 99.2) %
Median DoR (95% CI) [1, 4]: 3.3 (1.7, 4.9) months
ORR (95% CI) [1, 4]: 40.0 (5.3, 85.3) %
Median DoR (95% CI) ([1]; Dose Escalation Total, N = 13): 3.8 (0.7, 10.2) months
ORR (95% CI) ([1]; Dose Escalation Total, N = 13): 53.8 (25.1, 80.8) %
Median DoR (95% CI) [1, 5]: 7.5 (4.7, 15.9) months
ORR (95% CI) [1, 5]: 40.9 (20.7, 63.6) %
Patients who responded ([1]; out of 35 evaluable patients): 16 patients
Time of response ([1]; responders): Most of the patients responded at Cycle 3 Day 1
Efficacy in xenograft model [2]: demonstrated efficacy
Colitis and pneumonitis events (patients): no events of colitis and pneumonitis
Transaminitis incidence (patients): 10%
